Earlier results as cited in US7435726B2, “Compositions and methods for the treatment of cancer” (Celgene Corporation, priority 2001, dated 2008).

Details: irinotecan monotherapy, expected frequency

CCc1c2c(nc3ccc(OC(=O)N4CCC(N5CCCCC5)CC4)cc13)-c1cc3c(c(=O)n1C2)COC(=O)[C@]3(O)CC [Irinotecan, (4S)-4,11-diethyl-4-hydroxy-9-[(4-piperidino-piperidino)carbonyl-oxy]1H-pyranol-[3′,4′:6,7]indolizinol[1,2-b]quinoline-3,14-(4H,12H)dione]
Abdominal colic/pain, Expected (%) Grade 1-4: 23.7%
Abdominal colic/pain, Expected (%) Grade 3-4: 2.3%
Asthenia, Expected (%) Grade 1-4: 75.7%
Asthenia, Expected (%) Grade 3-4: 12.2%
Constipation, Expected (%) Grade 1-4: 29.9%
Constipation, Expected (%) Grade 3-4: 2.0%
Diarrhea (Late), Expected (%) Grade 1-4: 87.8%
Diarrhea (Late), Expected (%) Grade 3-4: 30.6%
Nausea, Expected (%) Grade 1-4: 86.2%
Vomiting, Expected (%) Grade 1-4: 66.8%
Vomiting, Expected (%) Grade 3-4: 12.5%
